Measurements as given in US20030022821A1, “Bioactive peptides” (priority 1998, published 2003).
Several values for one entry are separate records, joined by “and”; a condition that tells them apart may be missing. Equal entries are not always repeated. Where two headings read alike, the source gives them in different places. One block for each molecule: values may come before it. Square brackets hold non-standard residues; d marks the D form. Ends that are not written are not given here. Peptide text beside a SMILES is read from it.

Assays:
[1] = test system: MRSA (methicillin resistant S. aureus); format: cell-based
Description: The bacterial strains used were: Escherichia coli ATCC 25922 and Staphylococcus aureus ATCC 25923. All strains were stored at −70° C. The bacteria were grown in 2% Bacto Peptone water (Difco 1807-17-4). All tests were performed with bacteria in mid-logarithmic growth phase. Determination of the minimum inhibitory concentration (MIC) of the peptides for bacterial strains were performed in 1% Bacto Peptone water. A standard microdilution technique with an inoculum of 2×10^6 CFU/ml was used. All assays were performed in triplets. Since the peptides are positively charged and therefore could adhere to the plastic wells, we controlled the actual concentration of the peptides in the solution by HPLC. There was no difference between the concentration of the peptides before or after adding the solution to the plastic wells.
Table 13 below gives the antibacterial activity and toxicity data for some preferred peptides of the invention. MRSA is methicillin resistant S. aureus and MRSE is methicillin resistant S. epidermidis.

human red blood cells = assay: Hemolytic assay; format: cell-based
[2] = test system: Escherichia coli ATCC 25922; format: cell-based
Summary of the method: (§1)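 MIC values came from a standard microdilution method using mid-log bacteria at 2×10^6 CFU/ml in 1% Bacto Peptone water. HPLC confirmed actual peptide concentrations in solution, given possible adherence of the cationic peptides to plastic.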

[3] = test system: Staphylococcus aureus ATCC 25923; format: cell-based
Summary of the method: as §1

[4] = test system: human promyelotic leukemia cell line HL 60; assay: Cytotoxicity on HL 60 cells, MTT; format: cell-based
[5] = format: physicochemical
Excerpt: Peptide W3714, with three additional tryptophan residues (a total of five tryptophan residues in the peptide), has decreased activity. […] This has been physically observed during MIC testing procedures when the peptide tended to precipitate at high concentrations.

[6] = test system: Meth A cells (murine sarcoma cell line); assay: Cytotoxicity on Meth A cells, MTT method
Summary of the method: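 Meth A cells in RPMI with 10% FBS exposed to peptides (final e.g. […]) for 4 h, then MTT added for 2 h; formazan dissolved in acid isopropanol and absorbance read at 590 nm. Medium alone and 1% Triton X-100 defined 0% and 100% killing.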

Meth A tumors = assay: Tumor regression, murine Meth A fibrosarcoma; format: in vivo, mice; conditions: for regression of Meth A tumors: injected intratumorally, treatment on day 7 and 10
Description: Specific pathogen-free CB6F1 (Balb/c×C57 BL/6) female mice of about 8 weeks of age were obtained from Charles River (Germany). The mice were kept on standard laboratory chow and water. Tumor bearing mice were serologically screened for viral (LDH, CMV) and mycoplasmic infection and in all cases tested negative.
After a single inoculation of 5×10^7 viable Meth A cells, different LF peptides were injected intratumorally (LFB-14-31, LFB 17-31 Pmc, 500 μg in a 50 μl dose; LFB 17-31, 1000 μg in a 50 μl dose), on day 7 and day 10. LFB 14-31 was also injected intraperitoneally (PBI), 500 μg/ml. Saline only was injected in the control mice (50 μl) (K1,K2,K3). The tumor diameter (mean of transversal and longitudinal) were measured with an electronic calipper.

[7] = at the concentration tested, 4 hours

MIC MRSA ([1]; Table 13): 2.5 µg/mL
MIC MRSA ([1]; methicillin resistant): 1.5 µM
MIC E. coli ([2]; ATCC 25922): 6.2 µM
MIC E. coli ([2]; Table 10): 10 µg/mL
MIC E. coli ([2]; Table 13): 10.0 µg/mL
MIC S. aureus ([3]; Table 13): 1.0 µg/mL
Molecule: YRWWRWARRW-NH2 [LFM 17-26 A7R2,8, 9W3,4, 10Y1NH2]
EC50 (human red blood cells): 543 ± 56 µM
EC 50 (human red blood cells; Table 13, toxicity (hemolysis)): 880 ± 90 µg/mL

Molecule: CSCC[C@H](NC(=O)[C@H](CCCNC(=N)N)NC(=O)[C@H](Cc1ccc(-c2ccccc2)cc1)NC(=O)[C@H](CCC(N)=O)NC(=O)[C@H](Cc1c(S(=O)(=O)c2c(C)c(C)c3c(c2C)CCC(C)(C)O3)[nH]c2ccccc12)NC(=O)[C@H](CCCNC(=N)N)NC(=O)[C@H](CCCNC(=N)N)NC(=O)[C@H](CSCNC(C)=O)NC(=O)[C@H](CCCCN)NC(=O)[C@@H](N)Cc1ccccc1)C(=O)N[C@@H](CCCCN)C(=O)N[C@@H](CCCCN)C(=O)N[C@@H](CC(C)C)C(=O)NCC(=O)N[C@@H](C)C(=O)O [LFB Bip8 PMC]
MIC MRSA ([1]; Table 13): 2.5 μg/ml and 1.1 μM
MIC E. coli ([2]; Table 8): 25 µg/mL
MIC E. coli ([2]; Table 13): 15.0 μg/ml and 6.3 μM
MIC S. aureus ([3]; Table 8): 5 µg/mL
MIC S. aureus ([3]; Table 13): 2.5 μg/ml and 1.1 μM

MIC MRSA ([1]; methicillin resistant): 2.5 µg/mL
MIC E. coli ([2]; ATCC 25922): 7.5 µg/mL
MIC S. aureus ([3]; ATCC 25923): 5 µg/mL
Molecule: N=C(N)NCCC[C@@H](N)C(=O)N[C@H](Cc1c[nH]c2ccccc12)C(=O)N[C@@H](Cc1c[nH]c2ccccc12)C(=O)N[C@@H](CCCNC(=N)N)C(=O)N[C@@H](Cc1ccc(O)cc1)C(=O)N[C@H](Cc1c[nH]c2ccccc12)C(=O)N[C@H](CCCNC(=N)N)C(N)=O [arg-trp-TRP-ARG-TYR-trp-arg-CONH2] (H-[dR][dW]WRY[dW][dR]-NH2)

Molecule: CC[C@H](C)[C@H](NC(=O)[C@H](CO)NC(=O)[C@@H]1CCCN1C(=O)[C@H](C)NC(=O)CNC(=O)[C@H](CC(C)C)NC(=O)[C@H](CCCCN)NC(=O)[C@H](CCCCN)NC(=O)[C@H](CCSC)NC(=O)[C@H](CCCNC(=N)N)NC(=O)[C@H](Cc1c[nH]c2ccccc12)NC(=O)[C@H](CCC(N)=O)NC(=O)[C@H](Cc1c[nH]c2ccccc12)NC(=O)[C@H](CCCNC(=N)N)NC(=O)[C@H](CCCNC(=N)N)NC(=O)[C@H](CSCNC(C)=O)NC(=O)[C@H](CCCCN)NC(=O)[C@@H](N)Cc1ccccc1)C(=O)N[C@H](C(=O)N[C@@H](CSCNC(C)=O)C(=O)N[C@H](C(=O)N[C@@H](CCCNC(=N)N)C(=O)N[C@@H](CCCNC(=N)N)C(=O)N[C@@H](C)C(=O)N[C@@H](Cc1ccccc1)C(=O)O)C(C)C)[C@@H](C)O [LFB (17-41), reference compound]
MIC E. coli ATCC 25922 ([2]; Table 1): 30 µg/mL
MIC S. aureus ATCC 25923 ([3]; Table 1): 30 µg/mL
cytotoxic effect on human HL 60 cells [4, 7]: weak concentration dependant cytotoxic effect

Molecule: C[C@@H](NC(=O)[C@H](Cc1c[nH]c2ccccc12)NC(=O)[C@H](CCCNC(=N)N)NC(=O)[C@H](Cc1c[nH]c2ccccc12)NC(=O)[C@@H](C)NC(=O)[C@@H](CCCNC(=N)N)NC(=O)[C@H](N)Cc1ccc(O)cc1)C(=O)N[C@@H](Cc1c[nH]c2ccccc12)C(=O)N[C@@H](CCCNC(=N)N)C(=O)N[C@@H](Cc1c[nH]c2ccccc12)C(=O)N[C@@H](CCCNC(=N)N)C(N)=O (H-[dY][dR][dA]WRW[dA]WRWR-NH2)
MIC MRSA ([1]; Table 14): 2.5 µg/mL
MIC E. coli ([2]; Table 14, peptides with a proportion of D amino acids): 7.5 µg/mL
MIC S. aureus ([3]; Table 14): 5 µg/mL

MIC MRSA ([1]; methicillin resistant): 2.5 µg/mL
MIC E. coli ([2]; ATCC 25922): 7.5 µg/mL
MIC S. aureus ([3]; ATCC 25923): 7.5 µg/mL
Molecule: C[C@@H](NC(=O)[C@H](CCCNC(=N)N)NC(=O)[C@H](N)Cc1ccc(O)cc1)C(=O)N[C@@H](Cc1c[nH]c2ccccc12)C(=O)N[C@H](CCCNC(=N)N)C(=O)N[C@@H](Cc1c[nH]c2ccccc12)C(=O)N[C@H](C)C(=O)N[C@@H](Cc1c[nH]c2ccccc12)C(=O)N[C@H](CCCNC(=N)N)C(=O)N[C@@H](Cc1c[nH]c2ccccc12)C(=O)N[C@H](CCCNC(=N)N)C(N)=O [tyr-ARG-ala-TRP-arg-TRP-ala-TRP-arg-TRP-arg-CONH2] (H-[dY]R[dA]W[dR]W[dA]W[dR]W[dR]-NH2; N-terminus assumed)

MIC MRSA ([1]; Table 13, 8): 5.0 µg/mL
MIC MRSA ([1]; methicillin resistant): 2.4 µM
MIC E. coli ([2]; ATCC 25922): 4.8 µM
MIC E. coli ([2]; Table 8): 10 µg/mL
MIC E. coli ([2]; Table 13, 8): 10.0 µg/mL
MIC S. aureus ([3]; ATCC 25923): 9.6 µM
MIC S. aureus ([3]; Table 8): 20 µg/mL
MIC S. aureus ([3]; Table 13, 8): 20.0 µg/mL
Molecule: CSCC[C@H](NC(=O)[C@H](CCCNC(=N)N)NC(=O)[C@H](Cc1ccc2ccccc2c1)NC(=O)[C@H](CCC(N)=O)NC(=O)[C@H](Cc1ccc2ccccc2c1)NC(=O)[C@H](CCCNC(=N)N)NC(=O)[C@H](CCCNC(=N)N)NC(=O)[C@H](CSCNC(C)=O)NC(=O)[C@H](CCCCN)NC(=O)[C@@H](N)Cc1ccccc1)C(=O)N[C@@H](CCCCN)C(=O)N[C@@H](CCCCN)C(=O)N[C@@H](CC(C)C)C(=O)NCC(=O)N[C@@H](C)C(=O)O [LFB Nal6, 8]
EC 50 (human red blood cells): >1000 µg/mL
EC50 (human red blood cells): > 479 µM
% Hemolysis 10 μg/ml (human red blood cells; red cells of human): 2.8%
% Hemolysis 100 μg/ml (human red blood cells; red cells of human): 4.9%

solubility in aqueous solutions [5]: less soluble in aquous solutions
MIC E. coli ([2]; ATCC 25922): 20 µg/mL
MIC E. coli ([2]; Table 6): 20 µg/mL
MIC S. aureus ([3]; ATCC 25923): 20 µg/mL
MIC S. aureus ([3]; Table 6, unit assumed): 20 µg/mL
Molecule: H-FKWRRWWWRMKKLWA-OH [LFB W3, 7, 14, H2N-Phe-Lys-Trp-Arg-Arg-Trp-Trp-Trp-Arg-Met-Lys-Lys-Leu-Trp-Ala-COOH]
% Hemolysis 10 μg/ml (human red blood cells; red cells of human): 4.02%
% Hemolysis 100 μg/ml (human red blood cells; red cells of human): 66.1%

MIC E. coli ([2]; ATCC 25922): 70 µg/mL
MIC E. coli ATCC 25922 ([2]; ATCC 25922): 70 µg/mL
MIC E. coli ATCC 25922 ([2]; Table 1, value in brackets): 28 µM
MIC S. aureus ([3]; ATCC 25923): >250 µg/mL
MIC S. aureus ATCC 25923 ([3]; ATCC 25923): 200 µg/mL
MIC S. aureus ATCC 25923 ([3]; Table 1, value in brackets): 80 µM
Molecule: CSCC[C@H](NC(=O)[C@H](CCCNC(=N)N)NC(=O)[C@H](Cc1c[nH]c2ccccc12)NC(=O)[C@H](CCC(N)=O)NC(=O)[C@H](Cc1c[nH]c2ccccc12)NC(=O)[C@H](CCCNC(=N)N)NC(=O)[C@H](CCCNC(=N)N)NC(=O)[C@H](CSCNC(C)=O)NC(=O)[C@H](CCCCN)NC(=O)[C@H](Cc1ccccc1)NC(=O)[C@H](Cc1c[nH]c2ccccc12)NC(=O)[C@H](CCC(=O)O)NC(=O)[C@@H]1CCCN1)C(=O)N[C@@H](CCCCN)C(=O)N[C@@H](CCCCN)C(=O)N[C@@H](CC(C)C)C(=O)NCC(=O)N[C@@H](C)C(=O)O [LFB 14-31]
EC50 (human red blood cells; red cells of human): > 404 µM
MethA IC50 ([6]; Table 7, peptide required to kill 50% of MethA cells): no activity
regression of Meth A tumors (Meth A tumors): induced regression of the Meth A tumors
eradication of Meth A tumors (Meth A tumors; treated intraperitoneally): tumors were also eradicated
cytotoxic effect on human HL 60 cells [4]: no cytotoxic effect

MIC MRSA ([1]; methicillin resistant): 2.5 µg/mL
MIC E. coli ([2]; ATCC 25922): 7.5 µg/mL
MIC S. aureus ([3]; ATCC 25923): 5 µg/mL
Molecule: N=C(N)NCCC[C@@H](N)C(=O)N[C@@H](Cc1c[nH]c2ccccc12)C(=O)N[C@H](Cc1c[nH]c2ccccc12)C(=O)N[C@@H](CCCNC(=N)N)C(=O)N[C@H](Cc1ccc(O)cc1)C(=O)N[C@@H](Cc1c[nH]c2ccccc12)C(=O)N[C@H](CCCNC(=N)N)C(N)=O [arg-TRP-trp-ARG-tyr-TRP-arg-CONH2] (H-[dR]W[dW]R[dY]W[dR]-NH2; N-terminus assumed)

Molecule: CSCC[C@H](NC(=O)[C@H](CCCNC(=N)N)NC(=O)[C@H](Cc1c[nH]c2ccccc12)NC(=O)[C@H](CCC(N)=O)NC(=O)[C@H](Cc1c[nH]c2ccccc12)NC(=O)[C@H](CCCNC(=N)N)NC(=O)[C@H](CCCNC(=N)N)NC(=O)[C@H](CSCNC(C)=O)NC(=O)[C@H](CCCCN)NC(=O)[C@@H](N)Cc1ccccc1)C(=O)N[C@@H](CCCCN)C(=O)N[C@@H](CCCCN)C(=O)N[C@@H](CC(C)C)C(=O)NCC(=O)N[C@@H](C)C(=O)O [LFB 17-31, H2N-Phe-Lys-Cys-Arg-Arg-Trp-Gln-Trp-Arg-Met-Lys-Lys-Leu-Gly-Ala-COOH]
cytotoxic effect on Meth A cells ([6]; 1 mg/ml, 4 hours incubation): weak effect
cytotoxic effect on Meth A cells ([6]; concentrations up to 1 mg/ml, ½ hour incubation): no significant cytotoxic effect
regression of Meth A tumors (Meth A tumors): induced regression of the Meth A tumors
MIC E. coli ATCC 25922 ([2]; Table 1, value in brackets): 20 µM
MIC E. coli ([2]; Table 3): 50 µg/mL
MIC E. coli ([2]; Table 4): 50 µg/mL
MIC E. coli ([2]; Table 6): 50 µg/mL
MIC S. aureus ATCC 25923 ([3]; Table 1, value in brackets): 50 µM
MIC S. aureus ([3]; Table 3, unit assumed): 100 µg/mL
MIC S. aureus ([3]; Table 4, unit assumed): 100 µg/mL
MIC S. aureus ([3]; Table 6, unit assumed): 100 µg/mL
cytotoxic effect on human HL 60 cells [4, 7]: no cytotoxic effect
